Test results as given in ChEMBL document CHEMBL5331145, “Discovery of a Novel Bifunctional Steroid Analog, YXG-158, as an Androgen Receptor Degrader and CYP17A1 Inhibitor for the Treatment of Enzalutamide-Resistant Prostate Cancer” (J Med Chem, 2023).

What was measured:
LNCaP = test: Antiproliferative activity against human LNCaP cells incubated for 6 days by CellTiter-Glo assay; format: functional, cell-based
[1] = molecular target: Voltage-gated inwardly rectifying potassium channel KCNH2 (Homo sapiens, UniProt Q12809); test: Inhibition of human ERG by patch clamp assay; format: toxicity
[2] = molecular target: T1, Androgen receptor (Homo sapiens) (UniProt P10275); test: Potency index, ratio of galeterone DC50 to test compound DC50 for induction of androgen receptor degradation in human LNCaP cells; format: cell-based
T1 sequence (whole entry): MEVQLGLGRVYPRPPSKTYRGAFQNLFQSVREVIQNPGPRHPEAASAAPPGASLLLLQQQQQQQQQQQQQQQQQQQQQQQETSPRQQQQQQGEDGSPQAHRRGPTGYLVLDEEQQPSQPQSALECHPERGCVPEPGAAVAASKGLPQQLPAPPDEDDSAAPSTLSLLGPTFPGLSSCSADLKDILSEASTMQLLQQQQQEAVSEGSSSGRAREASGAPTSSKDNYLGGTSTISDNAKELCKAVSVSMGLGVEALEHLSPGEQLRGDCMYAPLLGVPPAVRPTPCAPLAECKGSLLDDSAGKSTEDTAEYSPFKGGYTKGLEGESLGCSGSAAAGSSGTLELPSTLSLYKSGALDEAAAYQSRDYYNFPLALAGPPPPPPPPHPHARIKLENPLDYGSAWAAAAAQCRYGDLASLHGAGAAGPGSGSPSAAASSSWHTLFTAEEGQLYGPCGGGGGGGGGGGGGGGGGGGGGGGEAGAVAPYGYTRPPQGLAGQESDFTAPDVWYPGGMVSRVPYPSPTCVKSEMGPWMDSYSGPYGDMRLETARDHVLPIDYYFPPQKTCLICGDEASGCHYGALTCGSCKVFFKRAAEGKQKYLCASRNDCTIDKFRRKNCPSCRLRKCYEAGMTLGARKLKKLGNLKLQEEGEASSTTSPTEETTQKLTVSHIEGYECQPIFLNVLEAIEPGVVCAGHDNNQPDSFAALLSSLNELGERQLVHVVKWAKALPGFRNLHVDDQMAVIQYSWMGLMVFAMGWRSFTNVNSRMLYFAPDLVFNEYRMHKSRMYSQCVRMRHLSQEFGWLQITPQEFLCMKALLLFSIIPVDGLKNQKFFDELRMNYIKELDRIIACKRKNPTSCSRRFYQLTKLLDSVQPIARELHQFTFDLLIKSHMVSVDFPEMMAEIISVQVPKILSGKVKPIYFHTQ

Androgen receptor [3] = molecular target: T2, Androgen receptor (Homo sapiens, UniProt P10275); test: Induction of androgen receptor degradation in human LNCaP cells incubated for 24 hrs by ELISA; format: cell-based
T2 sequence (P10275 whole entry): T1 sequence (whole entry)

[4] = molecular target: T3, Steroid 17-alpha-hydroxylase/17,20 lyase (Homo sapiens, UniProt P05093); test: Inhibition of recombinant human CYP17A1 using progesterone as substrate incubated for 5 mins in presence of NADPH by LC-MS/MS analysis; format: ADME
T3 sequence (P05093 whole entry): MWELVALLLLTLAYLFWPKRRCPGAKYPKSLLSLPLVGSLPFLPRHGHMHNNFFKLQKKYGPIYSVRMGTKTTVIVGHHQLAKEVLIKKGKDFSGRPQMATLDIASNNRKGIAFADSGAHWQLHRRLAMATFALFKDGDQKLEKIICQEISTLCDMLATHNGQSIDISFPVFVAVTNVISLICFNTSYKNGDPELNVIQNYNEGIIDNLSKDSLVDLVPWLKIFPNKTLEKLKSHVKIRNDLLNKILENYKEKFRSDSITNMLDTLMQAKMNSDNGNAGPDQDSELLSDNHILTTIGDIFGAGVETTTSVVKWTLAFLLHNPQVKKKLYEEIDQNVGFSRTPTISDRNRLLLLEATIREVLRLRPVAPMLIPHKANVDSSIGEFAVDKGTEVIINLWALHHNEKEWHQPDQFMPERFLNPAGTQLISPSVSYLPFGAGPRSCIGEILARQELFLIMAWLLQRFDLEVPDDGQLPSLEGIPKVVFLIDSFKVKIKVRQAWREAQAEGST

[5] = Tmax in Sprague-Dawley rat at 10 mg/kg, po measured upto 24 hrs by LC-MS/MS analysis; format: ADME, organism-based; details: in vivo
[6] = AUC(0 to t) in Sprague-Dawley rat at 10 mg/kg, po measured upto 24 hrs by LC-MS/MS analysis; format: ADME, organism-based; details: in vivo
Androgen receptor [7] = molecular target: T2, Androgen receptor; test: Antagonist activity at wild type androgen receptor expressed in HEK293 cells assessed as reduction in DHT-induced transcriptional activation of androgen receptor incubated for 24 hrs by Steady-Glo assay; format: cell-based
[8] = Half life in Sprague-Dawley rat at 10 mg/kg, po measured upto 24 hrs by LC-MS/MS analysis; format: ADME, organism-based; details: in vivo
[9] = Cmax in Sprague-Dawley rat at 10 mg/kg, po measured upto 24 hrs by LC-MS/MS analysis; format: ADME, organism-based; design: dose 10 mg/kg, time < 24 hrs, route po; details: in vivo

Voltage-gated inwardly rectifying potassium channel KCNH2, sequence (Q12809 whole entry): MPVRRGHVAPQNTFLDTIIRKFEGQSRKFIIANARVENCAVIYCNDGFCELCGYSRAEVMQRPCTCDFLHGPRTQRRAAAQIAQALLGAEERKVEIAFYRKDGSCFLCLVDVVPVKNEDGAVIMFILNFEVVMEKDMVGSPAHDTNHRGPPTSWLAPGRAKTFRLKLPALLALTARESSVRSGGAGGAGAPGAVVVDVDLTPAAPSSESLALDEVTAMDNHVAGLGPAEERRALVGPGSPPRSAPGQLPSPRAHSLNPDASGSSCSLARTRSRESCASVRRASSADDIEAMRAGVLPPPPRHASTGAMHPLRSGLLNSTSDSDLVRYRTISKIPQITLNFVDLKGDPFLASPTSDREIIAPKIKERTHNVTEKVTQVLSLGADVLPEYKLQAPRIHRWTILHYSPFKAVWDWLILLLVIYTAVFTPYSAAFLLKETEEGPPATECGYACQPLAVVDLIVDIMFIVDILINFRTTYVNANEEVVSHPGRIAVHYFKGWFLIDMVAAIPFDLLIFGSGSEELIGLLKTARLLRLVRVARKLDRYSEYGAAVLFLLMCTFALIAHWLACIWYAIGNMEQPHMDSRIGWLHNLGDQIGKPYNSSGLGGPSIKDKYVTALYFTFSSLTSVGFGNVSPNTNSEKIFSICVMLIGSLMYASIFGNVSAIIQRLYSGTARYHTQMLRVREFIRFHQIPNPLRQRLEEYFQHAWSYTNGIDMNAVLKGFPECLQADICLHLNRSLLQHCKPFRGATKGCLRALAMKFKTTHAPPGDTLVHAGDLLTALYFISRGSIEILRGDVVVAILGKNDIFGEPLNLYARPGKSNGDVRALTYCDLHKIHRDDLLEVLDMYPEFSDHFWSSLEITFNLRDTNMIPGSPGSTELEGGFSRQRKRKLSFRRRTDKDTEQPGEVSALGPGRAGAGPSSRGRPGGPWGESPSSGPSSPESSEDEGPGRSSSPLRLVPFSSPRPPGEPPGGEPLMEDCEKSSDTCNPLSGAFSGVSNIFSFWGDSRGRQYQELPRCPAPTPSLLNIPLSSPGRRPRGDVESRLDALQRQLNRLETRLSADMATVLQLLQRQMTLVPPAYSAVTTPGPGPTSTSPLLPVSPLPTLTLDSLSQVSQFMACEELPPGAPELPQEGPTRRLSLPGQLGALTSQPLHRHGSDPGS

| Structure (SMILES) | IC50 (LNCaP) | IC50 [1] | further results |
| --- | --- | --- | --- |
| C[C@]12CC[C@H](NC(=O)c3ccnnc3)CC1=CCC1C2CC[C@]2(C)C(n3cnc(C#N)c3)=CCC12 (stereo partly drawn) | 0.471 µM | 2.87 µM | – |
| Cc1cn(C2=CCC3C4CC=C5C[C@@H](NC(=O)n6ccnc6)CC[C@]5(C)C4CC[C@]23C)cn1 (stereo partly drawn) | 6.55 µM | – | – |
| Cc1cn(C2=CCC3C4CC=C5C[C@@H](NC(=O)c6ccc(C#N)cc6)CC[C@]5(C)C4CC[C@]23C)cn1 (stereo partly drawn) | 0.643 µM | > 40 µM | Ratio [2]: 2.5; EC50 (Androgen receptor [3]): 1.56 µM |
| Cc1cn(C2=CCC3C4CC=C5C[C@@H](NS(=O)(=O)c6ccc([N+](=O)[O-])cc6)CC[C@]5(C)C4CC[C@]23C)cn1 (stereo partly drawn) | 3.44 µM | – | – |
| Cc1cn(C2=CCC3C4CC=C5C[C@@H](NS(=O)(=O)c6ccc(C#N)cc6)CC[C@]5(C)C4CC[C@]23C)cn1 (stereo partly drawn) | 3.65 µM | – | – |
| Cc1cn(C2=CCC3C4CC=C5C[C@@H](NC(=O)c6ccc(S(C)(=O)=O)cc6)CC[C@]5(C)C4CC[C@]23C)cn1 (stereo partly drawn) | 0.527 µM | > 40 µM | Ratio [2]: 2.5; EC50 (Androgen receptor [3]): 1.37 µM |
| CCc1cn(C2=CCC3C4CC=C5C[C@@H](NC(=O)c6ccncc6)CC[C@]5(C)C4CC[C@]23C)cn1 (stereo partly drawn) | 0.356 µM | 3.58 µM | Ratio [2]: 2.5; EC50 (Androgen receptor [3]): 3.21 µM |
| Cc1cn(C2=CCC3C4CC=C5C[C@@H](NS(=O)(=O)c6cccnc6)CC[C@]5(C)C4CC[C@]23C)cn1 (stereo partly drawn) | 2.1 µM | – | – |
| Cc1cn(C2=CCC3C4CC=C5C[C@@H](NC(=O)c6ccncc6)CC[C@]5(C)C4CC[C@]23C)cn1 (stereo partly drawn) | 0.341 µM | 6.47 µM | EC50 (Androgen receptor [3]): 2.84 µM; IC50 [4]: 2.59 µM; Tmax [5]: 2.17 h; AUCt [6]: 24800 h/ng/mL; IC50 (Androgen receptor [7]): 0.612 µM; half-life [8]: 2.8 h; Cmax [9]: 2670 ng/mL |

Second part, led by results:

| IC50 (LNCaP) | Structure (SMILES) | IC50 [1] | further results |
| --- | --- | --- | --- |
| 2.42 µM | Cc1cn(C2=CCC3C4CC=C5C[C@@H](NC(=O)c6ncccn6)CC[C@]5(C)C4CC[C@]23C)cn1 (stereo partly drawn) | – | – |
| 1.96 µM | COC(=O)c1cn(C2=CCC3C4CC=C5C[C@@H](NC(=O)c6ccnnc6)CC[C@]5(C)C4CC[C@]23C)cn1 (stereo partly drawn) | – | – |
| 1.83 µM | CC(O)c1cn(C2=CCC3C4CC=C5C[C@@H](NC(=O)c6ccnnc6)CC[C@]5(C)C4CC[C@]23C)cn1 (stereo partly drawn) | – | – |
| 1.25 µM | Cc1cn(C2=CCC3C4CC=C5C[C@@H](NC(=O)c6ccncn6)CC[C@]5(C)C4CC[C@]23C)cn1 (stereo partly drawn) | – | – |
| 4.63 µM | CC(C)(O)c1cn(C2=CCC3C4CC=C5C[C@@H](NC(=O)c6ccnnc6)CC[C@]5(C)C4CC[C@]23C)cn1 (stereo partly drawn) | – | – |
| 1.49 µM | C[C@]12CC[C@H](NC(=O)c3ccnnc3)CC1=CCC1C2CC[C@]2(C)C(n3cnc(Br)c3)=CCC12 (stereo partly drawn) | – | – |
